Measurements reported in patent US20130072430A1, “METHODS FOR TREATMENT OR PROPHYLAXIS OF KIDNEY OR LIVER DYSFUNCTION” (NPS PHARMACEUTICALS, INC., priority 2010, published 2013).

Test system: Human patients with short bowel syndrome
Test: Example 2: liver biomarkers (albumin, gamma glutamyl transferase, total bilirubin, ALT, AST, ALP) in short bowel syndrome patients, every four weeks for 24 weeks
Type: in vivo
Details: 0.05 mg/kg/d
Description: To further confirm the results of Example 1, a further study was conducted involving more individuals and additional diagnostic biomarkers. Human patients with short bowel syndrome were divided into two groups: a control group (43 total individuals) to receive placebo, and an experimental group (42 total individuals) to receive teduglutide at 0.05 mg/kg/day throughout the study. Patients were treated by subcutaneous injection of placebo or the appropriate dose of teduglutide. Known biomarkers of liver function were monitored every four weeks, for 24 weeks. The liver biomarkers tested included albumin, gamma glutamyl transferase, total bilirubin, ALT and AST and ALP. Before administration of placebo or teduglutide, diagnostic biomarker levels were tested to establish a baseline for each individual.
To determine the effect of GLP-2 on the levels of the diagnostic biomarkers, the average level of each biomarker was measured for the placebo and teduglutide treated groups for each visit. Furthermore, the average change from baseline was calculated using the established baseline values. For FIGS. 17-28, p-values were calculated using the t-test.
P values are provided, which were calculated for each distribution of biomarker changes for each week using the chi-squared test.

For CC[C@H](C)[C@H](NC(=O)[C@H](Cc1ccccc1)NC(=O)[C@H](CC(=O)O)NC(=O)[C@H](CCCNC(=N)N)NC(=O)[C@H](C)NC(=O)[C@H](C)NC(=O)[C@H](CC(C)C)NC(=O)[C@H](CC(N)=O)NC(=O)[C@H](CC(=O)O)NC(=O)[C@H](CC(C)C)NC(=O)[C@@H](NC(=O)[C@@H](NC(=O)[C@H](CC(N)=O)NC(=O)[C@H](CCSC)NC(=O)[C@H](CCC(=O)O)NC(=O)[C@H](CC(=O)O)NC(=O)[C@H](CO)NC(=O)[C@H](Cc1ccccc1)NC(=O)[C@H](CO)NC(=O)CNC(=O)[C@H](CC(=O)O)NC(=O)CNC(=O)[C@@H](N)Cc1c[nH]cn1)[C@@H](C)O)[C@@H](C)CC)C(=O)N[C@@H](CC(N)=O)C(=O)N[C@@H](Cc1c[nH]c2ccccc12)C(=O)N[C@@H](CC(C)C)C(=O)N[C@H](C(=O)N[C@@H](CCC(N)=O)C(=O)N[C@H](C(=O)N[C@@H](CCCCN)C(=O)N[C@H](C(=O)N[C@H](C(=O)N[C@@H](CC(=O)O)C(=O)O)[C@@H](C)O)[C@@H](C)CC)[C@@H](C)O)[C@@H](C)CC [teduglutide], the “Gamma Glutamyl Transferase Change from Baseline, Median” value (Week 8, n=40) was −5.5 U/L, the “Gamma Glutamyl Transferase Observed Value, Mean” value (Week 8, n=40) was 71.5 U/L and the “Gamma Glutamyl Transferase Observed Value, Median” value (Week 8, n=40) was 46 U/L. For the same compound, the “ALT >10% decrease from Baseline, % of subjects” value (Week 12, m=34) was “(50.0%)”, the “ALT >10% decrease from Baseline, n subjects” value (Week 12, m=34) was 17 and the “ALT >10% increase from Baseline, % of subjects” value (Week 12, m=34) was “(20.6%)”. The “ALT >10% increase from Baseline, n subjects” value (Week 12, m=34) was 7, the “ALT Within 10% of Baseline, % of subjects” value (Week 12, m=34) was “(29.4%)” and the “ALT Within 10% of Baseline, n subjects” value (Week 12, m=34) was 10. For the same compound, the “AST >10% decrease from Baseline, % of subjects” value (Week 12, m=34) was “(61.8%)”, the “AST >10% decrease from Baseline, n subjects” value (Week 12, m=34) was 21 and the “AST >10% increase from Baseline, % of subjects” value (Week 12, m=34) was “(20.6%)”. For the same compound, the “AST >10% increase from Baseline, n subjects” value (Week 12, m=34) was 7, the “AST Within 10% of Baseline, % of subjects” value (Week 12, m=34) was “(17.6%)” and the “AST Within 10% of Baseline, n subjects” value (Week 12, m=34) was 6. The “Albumin >10% decrease from Baseline, % of subjects” value (Week 12, m=34) was “(5.9%)”, the “Albumin >10% decrease from Baseline, n subjects” value (Week 12, m=34) was 2 and the “Albumin >10% increase from Baseline, % of subjects” value (Week 12, m=34) was “(2.9%)”. For the same compound, the “Albumin >10% increase from Baseline, n subjects” value (Week 12, m=34) was 1, the “Albumin Within 10% of Baseline, % of subjects” value (Week 12, m=34) was “(91.2%)” and the “Albumin Within 10% of Baseline, n subjects” value (Week 12, m=34) was 31. For the same compound, the “Alkaline Phosphatase >10% decrease from Baseline, % of subjects” value (Week 12, m=34) was “(67.6%)”, the “Alkaline Phosphatase >10% decrease from Baseline, n subjects” value (Week 12, m=34) was 23 and the “Alkaline Phosphatase >10% increase from Baseline, % of subjects” value (Week 12, m=34) was “(14.7%)”. For the same compound, the “Alkaline Phosphatase >10% increase from Baseline, n subjects” value (Week 12, m=34) was 5, the “Alkaline Phosphatase Within 10% of Baseline, % of subjects” value (Week 12, m=34) was “(17.6%)” and the “Alkaline Phosphatase Within 10% of Baseline, n subjects” value (Week 12, m=34) was 6. For the same compound, the “Bilirubin >10% decrease from Baseline, % of subjects” value (Week 12, m=34) was “(44.1%)”, the “Bilirubin >10% decrease from Baseline, n subjects” value (Week 12, m=34) was 15 and the “Bilirubin >10% increase from Baseline, % of subjects” value (Week 12, m=34) was “(26.5%)”. The “Bilirubin >10% increase from Baseline, n subjects” value (Week 12, m=34) was 9, the “Bilirubin Within 10% of Baseline, % of subjects” value (Week 12, m=34) was “(29.4%)” and the “Bilirubin Within 10% of Baseline, n subjects” value (Week 12, m=34) was 10. The “ALKALINE PHOSPHATASE Change from Baseline, Median” value (Week 12, n=34) was −23 U/L, the “ALT Change from Baseline, Mean” value (Week 12, n=34) was −9.8 U/L and the “ALT Change from Baseline, Median” value (Week 12, n=34) was −4 U/L. The “ALT Observed Value, Mean” value (Week 12, n=34) was 33.6 U/L, the “ALT Observed Value, Median” value (Week 12, n=34) was 27.5 U/L and the “AST Change from Baseline, Mean” value (Week 12, n=34) was −4.2 U/L. For the same compound, the “AST Change from Baseline, Median” value (Week 12, n=34) was −5 U/L, the “AST Observed Value, Mean” value (Week 12, n=34) was 28.4 U/L and the “AST Observed Value, Median” value (Week 12, n=34) was 25 U/L. For the same compound, the “Albumin Change from Baseline, Mean” value (Week 12, n=34) was -0.9 g/L, the “Albumin Change from Baseline, Median” value (Week 12, n=34) was -1 g/L and the “Albumin Observed Value, Mean” value (Week 12, n=34) was 41.2 g/L. The “Albumin Observed Value, Median” value (Week 12, n=34) was 41 g/L, the “Alkaline Phosphatase Change from Baseline, Mean” value (Week 12, n=34) was −27.2 U/L and the “Alkaline Phosphatase Observed Value, Mean” value (Week 12, n=34) was 108.6 U/L. The “Alkaline Phosphatase Observed Value, Median” value (Week 12, n=34) was 98 U/L, the “Bilirubin Change from Baseline, Mean” value (Week 12, n=34) was -1.54 µmol/L and the “Bilirubin Change from Baseline, Median” value (Week 12, n=34) was -0.05 µmol/L. For the same compound, the “Bilirubin Observed Value, Mean” value (Week 12, n=34) was 10.57 µmol/L, the “Bilirubin Observed Value, Median” value (Week 12, n=34) was 8.35 µmol/L and the “Gamma Glutamyl Transferase Change from Baseline, Mean” value (Week 12, n=34) was −8.1 U/L. For the same compound, the “Gamma Glutamyl Transferase Change from Baseline, Median” value (Week 12, n=34) was −4 U/L, the “Gamma Glutamyl Transferase Observed Value, Mean” value (Week 12, n=34) was 67.9 U/L and the “Gamma Glutamyl Transferase Observed Value, Median” value (Week 12, n=34) was 51 U/L. The “ALT >10% decrease from Baseline, % of subjects” value (Week 16, m=38) was “(52.6%)”, the “ALT >10% decrease from Baseline, n subjects” value (Week 16, m=38) was 20 and the “ALT >10% increase from Baseline, % of subjects” value (Week 16, m=38) was “(21.1%)”. For the same compound, the “ALT >10% increase from Baseline, n subjects” value (Week 16, m=38) was 8, the “ALT Within 10% of Baseline, % of subjects” value (Week 16, m=38) was “(26.3%)” and the “ALT Within 10% of Baseline, n subjects” value (Week 16, m=38) was 10. For the same compound, the “AST >10% decrease from Baseline, % of subjects” value (Week 16, m=38) was “(50.0%)”, the “AST >10% decrease from Baseline, n subjects” value (Week 16, m=38) was 19 and the “AST >10% increase from Baseline, % of subjects” value (Week 16, m=38) was “(18.4%)”. For the same compound, the “AST >10% increase from Baseline, n subjects” value (Week 16, m=38) was 7, the “AST Within 10% of Baseline, % of subjects” value (Week 16, m=38) was “(31.6%)” and the “AST Within 10% of Baseline, n subjects” value (Week 16, m=38) was 12. The “Albumin >10% decrease from Baseline, % of subjects” value (Week 16, m=38) was “(5.3%)”, the “Albumin >10% decrease from Baseline, n subjects” value (Week 16, m=38) was 2 and the “Albumin >10% increase from Baseline, n subjects” value (Week 16, m=38) was 0. The “Albumin Within 10% of Baseline, % of subjects” value (Week 16, m=38) was “(94.7%)”, the “Albumin Within 10% of Baseline, n subjects” value (Week 16, m=38) was 36 and the “Alkaline Phosphatase >10% decrease from Baseline, % of subjects” value (Week 16, m=38) was “(60.5%)”. The “Alkaline Phosphatase >10% decrease from Baseline, n subjects” value (Week 16, m=38) was 23, the “Alkaline Phosphatase >10% increase from Baseline, % of subjects” value (Week 16, m=38) was “(21.1%)” and the “Alkaline Phosphatase >10% increase from Baseline, n subjects” value (Week 16, m=38) was 8. For the same compound, the “Alkaline Phosphatase Within 10% of Baseline, % of subjects” value (Week 16, m=38) was “(18.4%)”, the “Alkaline Phosphatase Within 10% of Baseline, n subjects” value (Week 16, m=38) was 7 and the “Bilirubin >10% decrease from Baseline, % of subjects” value (Week 16, m=38) was “(63.2%)”. For the same compound, the “Bilirubin >10% decrease from Baseline, n subjects” value (Week 16, m=38) was 24, the “Bilirubin >10% increase from Baseline, % of subjects” value (Week 16, m=38) was “(23.7%)” and the “Bilirubin >10% increase from Baseline, n subjects” value (Week 16, m=38) was 9. For the same compound, the “Bilirubin Within 10% of Baseline, % of subjects” value (Week 16, m=38) was “(13.2%)”, the “Bilirubin Within 10% of Baseline, n subjects” value (Week 16, m=38) was 5 and the “ALKALINE PHOSPHATASE Change from Baseline, Median” value (Week 16, n=38) was −22.5 U/L. The “ALT Change from Baseline, Mean” value (Week 16, n=38) was −8.0 U/L, the “ALT Change from Baseline, Median” value (Week 16, n=38) was −3 U/L and the “ALT Observed Value, Mean” value (Week 16, n=38) was 37.5 U/L. The “ALT Observed Value, Median” value (Week 16, n=38) was 26.5 U/L, the “AST Change from Baseline, Mean” value (Week 16, n=38) was −3.3 U/L and the “AST Change from Baseline, Median” value (Week 16, n=38) was −3 U/L. For the same compound, the “AST Observed Value, Mean” value (Week 16, n=38) was 29.8 U/L, the “AST Observed Value, Median” value (Week 16, n=38) was 26 U/L and the “Albumin Change from Baseline, Mean” value (Week 16, n=38) was -0.7 g/L. For the same compound, the “Albumin Change from Baseline, Median” value (Week 16, n=38) was -0.5 g/L, the “Albumin Observed Value, Mean” value (Week 16, n=38) was 41.7 g/L and the “Albumin Observed Value, Median” value (Week 16, n=38) was 42 g/L. The “Alkaline Phosphatase Change from Baseline, Mean” value (Week 16, n=38) was −24.5 U/L, the “Alkaline Phosphatase Observed Value, Mean” value (Week 16, n=38) was 114.2 U/L and the “Alkaline Phosphatase Observed Value, Median” value (Week 16, n=38) was 102 U/L. For the same compound, the “Bilirubin Change from Baseline, Mean” value (Week 16, n=38) was -3.41 µmol/L, the “Bilirubin Change from Baseline, Median” value (Week 16, n=38) was -1.75 µmol/L and the “Bilirubin Observed Value, Mean” value (Week 16, n=38) was 9.40 µmol/L. The “Bilirubin Observed Value, Median” value (Week 16, n=38) was 8.1 µmol/L, the “Gamma Glutamyl Transferase Change from Baseline, Mean” value (Week 16, n=38) was −7.0 U/L and the “Gamma Glutamyl Transferase Change from Baseline, Median” value (Week 16, n=38) was −5.5 U/L.
